pIC50: −log10 of the molar value.
Tested on: 935938-334-R-J1-PDC spheroids with HUVEC/MSC, viability
Experiment: Anticancer human tumor 935938-334-R-J1-PDC patient-derived small intestine adenocarcinoma cell line growth inhibition [PI3K]
Conditions: for pIC50: curve of first compound; for viability, T/C: stronger effect = lower value
Outline: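 Combination activity was assessed by viability in multicellular tumor spheroids carrying HUVEC and MSC components. Agents were tested with PI3K inhibitors from a Cmax-based top dose (or 10 microM) downward in half-log increments.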

[1] = second compound 0.0316 µM, first compound 0.0316 µM
[2] = second compound 0.0316 µM, first compound 0.1 µM
[3] = second compound 0.0316 µM, first compound 0.316 µM
[4] = second compound 0.0316 µM, first compound 1 µM
[5] = second compound 0.0316 µM, first compound 3.16 µM
[6] = second compound 0.0316 µM, first compound 10 µM
[7] = second compound 0.1 µM, first compound 0.0316 µM
[8] = second compound 0.1 µM, first compound 0.1 µM
[9] = second compound 0.1 µM, first compound 0.316 µM
[10] = second compound 0.1 µM, first compound 1 µM
[11] = second compound 0.1 µM, first compound 3.16 µM
[12] = second compound 0.1 µM, first compound 10 µM
[13] = second compound 0.316 µM, first compound 0.0316 µM
[14] = second compound 0.316 µM, first compound 0.1 µM
[15] = second compound 0.316 µM, first compound 0.316 µM
[16] = second compound 0.316 µM, first compound 1 µM
[17] = second compound 0.316 µM, first compound 3.16 µM
[18] = second compound 0.316 µM, first compound 10 µM
[19] = second compound 1 µM, first compound 0.0316 µM
[20] = second compound 1 µM, first compound 0.1 µM
[21] = second compound 1 µM, first compound 0.316 µM
[22] = second compound 1 µM, first compound 1 µM
[23] = second compound 1 µM, first compound 3.16 µM
[24] = second compound 1 µM, first compound 10 µM
[25] = second compound 3.16 µM, first compound 0.0316 µM
[26] = second compound 3.16 µM, first compound 0.1 µM
[27] = second compound 3.16 µM, first compound 0.316 µM
[28] = second compound 3.16 µM, first compound 1 µM
[29] = second compound 3.16 µM, first compound 3.16 µM
[30] = second compound 3.16 µM, first compound 10 µM
[31] = second compound 10 µM, first compound 0.0316 µM
[32] = second compound 10 µM, first compound 0.1 µM
[33] = second compound 10 µM, first compound 0.316 µM
[34] = second compound 10 µM, first compound 1 µM
[35] = second compound 10 µM, first compound 3.16 µM
[36] = second compound 10 µM, first compound 10 µM
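Further: compound exposure lasted seven days before viability was read.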
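Wherever viability, T/C is given: percent of vehicle DMSO treated spheroid viability so 100% = untreated.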

C[C@@H](NC(=O)c1ncnc(N)c1Cl)c1ncc(C(=O)Nc2cc(C(F)(F)F)c(Cl)cn2)s1 + CC(Nc1ncnc2nc[nH]c12)c1cc2cccc(Cl)c2c(=O)n1-c1ccccc1
pIC50 (second compound 0.0316 µM): < 5.00 | pIC50 (second compound 0.1 µM): < 5.00 | pIC50 (second compound 0.316 µM): < 5.00 | pIC50 (second compound 1 µM): < 5.00 | pIC50 (second compound 3.16 µM): < 5.00 | pIC50 (second compound 10 µM): < 5.00 | viability, T/C [1]: 104% | viability, T/C [2]: 103% | viability, T/C [3]: 90.1% | viability, T/C [4]: 120% | viability, T/C [5]: 109% | viability, T/C [6]: 75.6% | viability, T/C [7]: 109% | viability, T/C [8]: 138% | viability, T/C [9]: 123% | viability, T/C [10]: 99.8% | viability, T/C [11]: 98.2% | viability, T/C [12]: 111% | viability, T/C [13]: 123% | viability, T/C [14]: 84.5% | viability, T/C [15]: 118% | viability, T/C [16]: 127% | viability, T/C [17]: 98.3% | viability, T/C [18]: 107% | viability, T/C [19]: 97.8% | viability, T/C [20]: 86.6% | viability, T/C [21]: 126% | viability, T/C [22]: 95.1% | viability, T/C [23]: 117% | viability, T/C [24]: 69.8% | viability, T/C [25]: 91.8% | viability, T/C [26]: 116% | viability, T/C [27]: 109% | viability, T/C [28]: 104% | viability, T/C [29]: 90% | viability, T/C [30]: 70% | viability, T/C [31]: 81.4% | viability, T/C [32]: 88.5% | viability, T/C [33]: 98.7% | viability, T/C [34]: 92.9% | viability, T/C [35]: 87.8% | viability, T/C [36]: 60.8%

Cn1ncc(Cl)c1-c1cc(C(=O)NC(CN)Cc2cccc(F)c2)sc1Cl (stereo unspecified) + CC(Nc1ncnc2nc[nH]c12)c1cc2cccc(Cl)c2c(=O)n1-c1ccccc1
pIC50 (second compound 0.0316 µM): < 5.00 | pIC50 (second compound 0.1 µM): < 5.00 | pIC50 (second compound 0.316 µM): 5.51 | pIC50 (second compound 1 µM): 5.57 | pIC50 (second compound 3.16 µM): 5.75 | pIC50 (second compound 10 µM): 6.57 | viability, T/C [1]: 73% | viability, T/C [2]: 91.4% | viability, T/C [3]: 65.3% | viability, T/C [4]: 65.4% | viability, T/C [5]: 54.6% | viability, T/C [6]: 51.3% | viability, T/C [7]: 92.6% | viability, T/C [8]: 88.9% | viability, T/C [9]: 88.1% | viability, T/C [10]: 63.2% | viability, T/C [11]: 56.8% | viability, T/C [12]: 58.1% | viability, T/C [13]: 104% | viability, T/C [14]: 128% | viability, T/C [15]: 75% | viability, T/C [16]: 78.4% | viability, T/C [17]: 49.3% | viability, T/C [18]: 34% | viability, T/C [19]: 73.5% | viability, T/C [20]: 97.8% | viability, T/C [21]: 73.1% | viability, T/C [22]: 61.6% | viability, T/C [23]: 51.3% | viability, T/C [24]: 36.3% | viability, T/C [25]: 72.2% | viability, T/C [26]: 74.1% | viability, T/C [27]: 61.5% | viability, T/C [28]: 47.9% | viability, T/C [29]: 52.5% | viability, T/C [30]: 33.2% | viability, T/C [31]: 73.2% | viability, T/C [32]: 83.9% | viability, T/C [33]: 45.5% | viability, T/C [34]: 52.7% | viability, T/C [35]: 39.4% | viability, T/C [36]: 34.5%

Cn1ncnc1[C@H]1c2n[nH]c(=O)c3cc(F)cc(c23)N[C@@H]1c1ccc(F)cc1 + CC(Nc1ncnc2nc[nH]c12)c1cc2cccc(Cl)c2c(=O)n1-c1ccccc1
pIC50 (second compound 0.0316 µM): < 7.00 | pIC50 (second compound 0.1 µM): < 7.00 | pIC50 (second compound 0.316 µM): < 7.00 | pIC50 (second compound 1 µM): < 7.00 | pIC50 (second compound 3.16 µM): < 7.00 | pIC50 (second compound 10 µM): < 7.00 | viability, T/C (second compound 0.0316 µM, first compound 0.000316 µM): 95.3% | viability, T/C (second compound 0.0316 µM, first compound 0.001 µM): 84.7% | viability, T/C (second compound 0.0316 µM, first compound 0.00316 µM): 82.9% | viability, T/C (second compound 0.0316 µM, first compound 0.01 µM): 108% | viability, T/C [1]: 102% | viability, T/C [2]: 84.3% | viability, T/C (second compound 0.1 µM, first compound 0.000316 µM): 86.7% | viability, T/C (second compound 0.1 µM, first compound 0.001 µM): 84.5% | viability, T/C (second compound 0.1 µM, first compound 0.00316 µM): 91.8% | viability, T/C (second compound 0.1 µM, first compound 0.01 µM): 80.2% | viability, T/C [7]: 85.1% | viability, T/C [8]: 88.1% | viability, T/C (second compound 0.316 µM, first compound 0.000316 µM): 109% | viability, T/C (second compound 0.316 µM, first compound 0.001 µM): 85.4% | viability, T/C (second compound 0.316 µM, first compound 0.00316 µM): 83.6% | viability, T/C (second compound 0.316 µM, first compound 0.01 µM): 97.4% | viability, T/C [13]: 81.3% | viability, T/C [14]: 83.2% | viability, T/C (second compound 1 µM, first compound 0.000316 µM): 102% | viability, T/C (second compound 1 µM, first compound 0.001 µM): 115% | viability, T/C (second compound 1 µM, first compound 0.00316 µM): 86.3% | viability, T/C (second compound 1 µM, first compound 0.01 µM): 48.2% | viability, T/C [19]: 93.1% | viability, T/C [20]: 87.2% | viability, T/C (second compound 3.16 µM, first compound 0.000316 µM): 98% | viability, T/C (second compound 3.16 µM, first compound 0.001 µM): 71.9% | viability, T/C (second compound 3.16 µM, first compound 0.00316 µM): 90.9% | viability, T/C (second compound 3.16 µM, first compound 0.01 µM): 70.9% | viability, T/C [25]: 83.2% | viability, T/C [26]: 84.1% | viability, T/C (second compound 10 µM, first compound 0.000316 µM): 62.7% | viability, T/C (second compound 10 µM, first compound 0.001 µM): 89% | viability, T/C (second compound 10 µM, first compound 0.00316 µM): 94.6% | viability, T/C (second compound 10 µM, first compound 0.01 µM): 81.5% | viability, T/C [31]: 91.6% | viability, T/C [32]: 67.8%
